Results reported in patent US20130136772A1, “REGULATION OF IMMUNE RESPONSE BY COLOCYNTHIN AND/OR ITS DERIVATIVES” (priority 2010, published 2013).

Key:
TNF-α = assay: Intracellular TNF-α estimation in LPS activated murine neutrophils by flowcytometry; format: cell-based; settings: 100 μg/ml
Experimental: Flowcytometric studies were carried out to determine the anti-inflammatory effect of AD-B-63B on TNF-α cytokine expression in LPS activated murine neutrophils. Neutrophils play essential roles in host defence through their ability to clear bacterial infections. Their inappropriate activation contributes to a variety of inflammatory diseases, from the acute respiratory distress syndrome to asthma, chronic obstructive pulmonary disease and rheumatoid arthritis. TNF-α was chosen as the target for anti-inflammatory activity because of the fact that it is a pro-inflammatory cytokine and plays a major role in the pathogenesis of septic shock induced by LPS (Lipopolysaccharide) endotoxin injection [Remick, D. G.; Strieter, R. M.; Eskandari, M. K.; Nguyen, D. T.; Genord, M. A.; Raiford, C. L. Am. J. Path. 1990, 136, 49.]. LPS is an important triggering factor for in vivo systemic inflammatory response [Bone, R. C. Chest 1991, 100, 802]. LPS activates neutrophils via engagement of TLR4 (Toll-like receptor 4),[Sabroe, I.; Read, R. C.; Whyte, M. K. B.; Dockrell, D. H.; Vogel, S. N.; Dower, S. K. J. Immunol. 2003, 171, 1630.] resulting in the induction of a characteristic pro-inflammatory phenotype and prolongation of cell lifespan [Lee, A.; Whyte, M. K. B.; Haslett, C. J. Leukoc. Biol. 1993, 54, 283].
The anti-inflammatory activity of AD-B-63B was measured by the estimation of intracellular tumor necrosis factor alpha (TNF-α) expression in a gated population of neutrophils [Clara, B., R. C. Arancha, G. M. Andre's, P. Atanasio, A. Julia, and O. Alberto. 2003. A new method for detecting TNF-α-secreting cells using direct immunofluorescence surface membrane stainings. J. Immuno. Methods 264:77-87.]. Murine blood was subjected to centrifugation at 250× g for 20 min. Three layers were formed: an upper layer of platelet-rich plasma, a buffy coat middle layer and a lower layer formed of red blood cells. The middle layer was removed and subjected to Histopaque 1077 (Sigma) gradient separation. The upper layer containing neutrophils was removed and transferred to FACS tubes (Becton Dickinson). Lipopolysaccharide (LPS) derived from Escherichia coli (Sigma) was added at a concentration of 10 ng/ml for the stimulation of the cells. AD-B-63B was added at graded concentrations of 0.5, 1, 2.5, 5, 10 and 20 μg/ml. Samples were incubated for 3 h at 37° C. ( Table 1) Controls consisted of LPS-stimulated cells (LPS control). Further processing was done by the addition of FACS permeabilizing solution (Becton Dickinson), followed by the addition of phycoerythrin (PE)-labeled anti-mouse TNF-α. (Becton Dickinson). The cells were incubated in the dark, and after being washed with sterile PBS, samples were resuspended in PBS (pH 7.4) and acquired directly on the flow cytometer (FACS CANTO; Becton Dickinson). A fluorescence trigger was set on the […] parameter of the gated neutrophil populations (10,000 events). Rolipram at 100 μg/ml was used as standard inhibitor of TNF-α in this study. Fluorescence compensation, data analysis and data presentation were performed using software (Becton Dickinson) (FIG. 1) [Pandey A, Bani S, Kaul S, Sangawan P L; 2010, Selective Th1 upregulation by ethyl acetate fraction of Labisia pumila; 132 (2010) 309-315].

[1] = system: Interleukin-1beta (IL-1β); assay: Extracellular IL-1β in LPS stimulated murine neutrophils (ELISA, in vitro); format: cell-based; settings: 100 μg/ml
Experimental: Neutrophils were separated from whole blood by Histopaque gradient method (Histopaque-No. 1077). Cell count was adjusted to approximately 10^5/[…]. Lipopolysaccharide, at the concentration of 10 ng/ml was used as stimulus in in-vitro studies. […] Extracellular IL-1β was estimated through ELISA (Table 2) [Weir, R. E., Morgan, A. R., Britton, W. J., Butlin, C. R., Dockrell, H. M., 1994. Development of a whole blood assay to measure T cell responses to leprosy: a new tool for immuno-epidemiological fields studies of leprosy immunity. J. Immunol. Methods. 176, 93; Hussain, R., Kaleem, A., Shahid, F., Dojki, M., Jamil, B., Mehmood, H., Dawood, G., Dockrell, H., 2002. Cytokine profiles using whole blood assays can discriminate between tuberculosis patients and healthy endemic controls in a BCG-vaccinated population. J. Immunol. Methods. 264, 95-108]

[2] = system: cell mediated immune response (DTH); assay: SRBC induced delayed type hypersensitivity (DTH) response; format: in vivo, mice; settings: 5 mg/kg p.o.
Experimental: Test material was administered 2 h after immunization of mice by 200 μl of 5×10^9 SRBCs/ml. On 7th day, the thickness of the left hind foot was measured with spheromicrometer (0.01 mm pitch) and was considered as control. These mice were then challenged by injecting the 20 μl of 5×10^9 SRBCs/ml intradermally into the left hind footpad. The footpad thickness was measured again at 24 h after challenge (Doherty, 1981).

[3] = system: humoral antibody response; assay: SRBC induced haemagglutination antibody titre (humoral immune response); format: in vivo, mice
Experimental: 200 μl of 5×10^9 SRBC/ml was used to immunize the animals on day 0. Animals were treated with graded doses of AD-B-63B i.e., 1, 2.5, 5 and 10mg/kg p.o. for next six consecutive days. Blood samples were collected on day 7 for antibody titre assay. Haemagglutination antibody titre was determined following the microtitration technique described by Nelson and Midenhall, 1967. The value of highest serum dilution causing visible Haemagglutination was taken as titre. BSA saline alone served as control (Table 7).

skin allograft rejection = assay: Skin allograft rejection time; format: in vivo, mice; settings: for GRAFT REJECTION (Percent), delayed: 5 mg/kg p.o.
Experimental: The modified method of Billingham and Medawar (1951) [[…]] was followed to study the skin allograft rejection time in mice. Graded doses of test material AD-B-63B were administered to the animals for 7 days and graft rejection time (GRT) was recorded by daily observation of epithelial skin layer survival. […] The basic mechanism involved in increase in graft rejection time is the suppression of T lymphocytes. After transplantation, MHC peptide complexes of the foreign organ are recognized by CD4+ and CD8+ T cells of the recipient as non-self antigens. These T cells differentiate into effector T cells and stimulate an immune response. After T cells differentiate and migrate to the site, macrophages and other inflammatory agents are mediated to the site. Cytotoxic T cells (CD8+) lyse the endothelial cells on the graft, CD4+ Th1 activate macrophages and CD4+ Th2 aid in antibody production.

leucocyte migration = assay: In vivo leucocyte migration (carrageenan induced pleurisy); design: species or system mice; settings: 5 mg/kg p.o.
Experimental: Mice were injected with 0.2 ml of carrageenan (1% w/v) solution in sterilised normal saline into the pleural cavity by the modified method of Meacock and Kitchen, 1979 [Meacock S C R, Kitchen E A, (1979). Effect of non-steroidal antiinflammatory drug benoxaprofen on leukocyte migration. Journal of Pharmacy & Pharmacology; 31: 366-370]. The test drug was administered orally 1 h before and 6 h after the injection. After 24 h of carrageenan injection the pleural exudate was collected, volume measured and the total leucocyte count of the pleural fluid was determined (Table 3). Flowcytometry as a tool for evaluation of neutrophils is particularly useful because of their larger size than monocytes and lymphocytes when analysed on the forward scatter [FSc]. The percentage of these can be analysed by selectively ‘gating’ the neutrophils without physical separation of the cells (FIG. 4).

[4] = system: peritoneal murine macrophages; assay: Phagocytosis of heat killed Candida albicans by murine macrophages (in vitro); format: cell-based; settings: 5 μg/ml
Experimental: The method of Lehrer (1981) [Lehrer, R. I. Ingestion and destruction of Candida albicans. (1981) In: Methods for studying mono-nuclear phagocytes. Eds. Adams, D. O., Edelson, P. J. and Koren, H. (Academic Press, New York) 693-7081 was followed. The percentage and average number of Candida albicans cells (heatkilled) ingested by peritoneal murine macrophages was calculated. AD-B-63B was tested at the doses of 1, 2.5, Sand 10 μg/mL (Table 4).

Compound | Expression of intracellular TNF-alpha, Mean ± S.E (TNF-α; LPS 10 ng/ml, 3 h) | inhibition at 100 µg/mL (TNF-α; Mus musculus, Neutrophil, read-out: % TNF-alpha inhibition against LPS control) [%] | % activity IL-1β expression against LPS control (decrease) [1] | Concentration of IL-1β produced Mean ± S.E. ([1]; LPS 10 ng/ml, 4 hr) [pg/mL] | PERCENT INHIBITION (DTH response) [2] | FOOT PAD THICKNESS Mean ± SE ([2]; 24 h after SRBC challenge) [mm] | % ACTIVITY (decrease in antibody titre) ([3]; 5 mg/kg p.o.) | ANTIBODY TITRE MEAN ± S.E ([3]; 5 mg/kg p.o. for six days, blood on day 7) | GRAFT REJECTION (Percent), delayed (skin allograft rejection) [%] | REJECTION TIME Mean ± S.E. (skin allograft rejection; 5 mg/kg p.o. for 7 days) [days] | GRAFT REJECTION (Percent), delayed (skin allograft rejection; listed as PREDNISOLONE) | % inhibition of exudate volume (leucocyte migration) | % inhibition of total leucocyte count (leucocyte migration) | EXUDATE VOLUME Mean ± S.E. (leucocyte migration; 1 h before and 6 h after carrageenan, pleural exudate at 24 h) [mL] | % phagocytosis [in vitro study] Mean ± S.E. [4] [%] | percent decrease in phagocytosis [4] [%] | percent decrease in phagocytosis ([4]; listed as PREDNISOLONE)
COc1ccc(C2CNC(=O)C2)cc1OC1CCCC1 (centres unmarked) [Rolipram, reference compound] | 0.74 ± 0.04 | 72.5 | 52.85↓ % | 63.52 ± 2.07 |  |  |  |  |  |  |  |  |  |  |  |  | 
C[C@]12C=CC(=O)C=C1CC[C@@H]1[C@@H]2[C@@H](O)C[C@@]2(C)[C@H]1CC[C@]2(O)C(=O)CO [Prednisolone, reference compound] |  |  |  |  | 35.86↓ % | 0.59 ± 0.05 | 35.22↓ % | 3.99 ± 0.22 | 39.69 | 18.16 ± 0.16 | 39.69↓ % | (47.27%↓) | (33.23%↓) | 0.58 ± 0.28 | 15.99 ± 2.17 | 40.35 | (40.35%↓)
